Results from patent US6995263B2, “Indolyl and dihydroindolyl derivatives, their manufacture and use as pharmaceutical agents” (Hoffmann-La Roche Inc., priority 2003, dated 2006).

How the values were obtained:
PPARα = molecular target: T1, PPARα (Homo sapiens, UniProt Q07869); assay: Radioligand binding assay (SPA), PPARα receptor binding; details: GST-PPARα-LBD fusion protein, scintillation proximity counting
T1 construct: PPARα (aa 167 to 469); made in house; host or cells: E. coli BL21(pLysS)
T1 sequence (Q07869 167-468 limits assumed): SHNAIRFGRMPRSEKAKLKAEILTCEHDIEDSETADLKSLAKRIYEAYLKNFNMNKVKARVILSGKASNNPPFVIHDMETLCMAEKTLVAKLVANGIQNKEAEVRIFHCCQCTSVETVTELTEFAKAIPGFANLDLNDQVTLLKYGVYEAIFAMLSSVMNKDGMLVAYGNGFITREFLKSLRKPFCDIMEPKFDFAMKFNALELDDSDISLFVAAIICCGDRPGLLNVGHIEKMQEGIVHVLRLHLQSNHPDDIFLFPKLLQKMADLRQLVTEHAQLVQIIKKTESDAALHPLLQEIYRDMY
Source text: (§1) Background information on the performed assays can be found in: Nichols J S et al. “Development of a scintillation proximity assay for peroxisome proliferator-activated receptor gamma ligand binding domain”, (1998) Anal. Biochem. 257:112–119.
(§2) Full-length cDNA clones for humans PPARδ and PPARα and mouse PPARγ were obtained by RT-PCR from human adipose and mouse liver cRNA, respectively, cloned into plasmid vectors and verified by DNA sequencing. Bacterial and mammalian expression vectors were constructed to produce glutathione-s-transferase (GST) and Gal4 DNA binding domain proteins fused to the ligand binding domains (LBD) of PPARδ (aa 139 to 442), PPARγ (aa 174 to 476) and PPARα (aa 167 to 469). To accomplish this, the portions of the cloned sequences encoding the LBDs were amplified from the full-length clones by PCR and then subcloned into the plasmid vectors. Final clones were verified by DNA sequence analysis.
(§3) Induction, expression, and purification of GST-LBD fusion proteins were performed in E. coli strain BL21(pLysS) cells by standard methods (Ref: Current Protocols in Molecular Biology, Wiley Press, edited by Ausubel et al.).
(§4) PPARα receptor binding was assayed in TKE50 (50 mM Tris-HCl, pH 8, 50 mM KCl, 2 mM EDTA, 0.1 mg/ml fatty acid-free BSA and 10 mM DTT). For each 96 well reaction an 140 ng equivalent of GST-PPARα-LBD fusion protein was bound to 10 μg SPA beads (PharmaciaAmersham) in a final volume of 50 μl by shaking. The resulting slurry was incubated for 1 h at RT and centrifuged for 2 min at 1300 g. The supernatant containing unbound protein was removed and the semidry pellet containing the receptor-coated beads was resolved in 50 μl of TKE. […] All binding assays were performed in 96 well plates and the amount of bound ligand measured on a Packard TopCount using OptiPlates (Packard). Nonspecific binding was determined in the presence of 10^−4 M unlabelled compound. […]

PPARγ = molecular target: T2, PPARγ (Mus musculus, UniProt P37238); assay: Radioligand binding assay (SPA), PPARγ receptor binding; details: GST-PPARγ-LBD fusion protein, scintillation proximity counting
T2 construct: PPARγ (aa 174 to 476); made in house; host or cells: E. coli BL21(pLysS)
T2 sequence (P37238 174-475 isoform P37238-2): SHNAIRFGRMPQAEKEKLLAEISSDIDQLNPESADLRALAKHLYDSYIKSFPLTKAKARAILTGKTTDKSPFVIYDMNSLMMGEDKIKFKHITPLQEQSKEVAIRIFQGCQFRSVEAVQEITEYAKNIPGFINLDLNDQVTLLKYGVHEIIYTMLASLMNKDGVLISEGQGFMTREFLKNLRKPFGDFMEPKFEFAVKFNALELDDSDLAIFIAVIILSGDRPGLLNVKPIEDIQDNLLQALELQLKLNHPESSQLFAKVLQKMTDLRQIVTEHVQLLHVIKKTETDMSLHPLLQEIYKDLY
Source text: as §1, §2, §3
as §4, with “PPARγ” for “PPARα”, “GST-PPARγ-LBD” for “GST-PPARα-LBD”, “ul” for “μl”

PPARδ = molecular target: T3, PPARδ (Homo sapiens, UniProt Q03181); assay: Radioligand binding assay (SPA), PPARδ receptor binding; details: GST-PPARδ-LBD fusion protein, scintillation proximity counting
T3 construct: PPARδ (aa 139 to 442); made in house; host or cells: E. coli BL21(pLysS)
T3 sequence (Q03181 139-441 limits assumed): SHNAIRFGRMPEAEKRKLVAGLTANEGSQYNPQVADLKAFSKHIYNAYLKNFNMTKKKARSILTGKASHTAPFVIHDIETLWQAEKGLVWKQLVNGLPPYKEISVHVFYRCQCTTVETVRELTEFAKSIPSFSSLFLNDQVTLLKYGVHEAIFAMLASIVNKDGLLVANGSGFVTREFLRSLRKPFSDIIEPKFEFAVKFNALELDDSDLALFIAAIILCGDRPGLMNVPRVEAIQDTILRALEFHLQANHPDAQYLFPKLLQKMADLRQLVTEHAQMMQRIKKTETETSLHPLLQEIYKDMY
Source text: as §1, §2, §3
PPARδ receptor binding was assayed in HNM10 (50 mM Hepes, pH 7.4, 10 mM NaCl, 5 mM MgCl2, 0.15 mg/ml fatty acid-free BSA and 15 mM DTT). For each 96 well reaction a 500 ng equivalent of GST-PPARδ-LBD fusion protein and radioligand, e.g. 20000 dpm {2-methyl-4-[4-methyl-2-(4-trifluoromethyl-phenyl)-thiazol-5-yl-ditritiomethylsulfanyl]-phenoxy}-acetic acid, was bound to 10 μg SPA beads (PharmaciaAmersham) in a final volume of 50 μl by shaking. The resulting slurry was incubated for 1 h at RT and centrifuged for 2 min at 1300 g. […] Radioligand was added and the reaction incubated at RT for 1 h and scintillation proximity counting performed in the presence of test compounds was determined. All binding assays were performed in 96 well plates and the amount of bound ligand was measured on a Packard TopCount using OptiPlates (Packard). […]

Cc1nc(-c2ccc(C(F)(F)F)cc2)ccc1COc1ccc2c(c1)N(CC(=O)O)CC2 [Example 6, {6-[2-Methyl-6-(4-trifluoromethyl-phenyl)-pyridin-3-ylmethoxy]-2,3-dihydro-indol-1-yl}-acetic acid]
IC50 (PPARα): 1580 nM | IC50 (PPARγ): > 10000 nM | IC50 (PPARδ): 17 nM

Cc1nc(-c2ccc(C(F)(F)F)cc2)ncc1COc1ccc2c(ccn2CC(=O)O)c1 [Example 2, {5-[4-Methyl-2-(4-trifluoromethyl-phenyl)-pyrimidin-5-ylmethoxy]-indol-1-yl}-acetic acid]
IC50 (PPARα): 1320 nM | IC50 (PPARγ): > 10000 nM | IC50 (PPARδ): 83 nM

O=C(O)Cn1ccc2ccc(OCc3cnc(-c4ccc(C(F)(F)F)cc4)nc3C3CC3)cc21 [Example 7, {6-[4-Cyclopropyl-2-(4-trifluoromethyl-phenyl)-pyrimidin-5-ylmethoxy]-indol-1-yl}-acetic acid]
IC50 (PPARα): 211 nM | IC50 (PPARγ): > 10000 nM | IC50 (PPARδ): 1 nM
